Measured values: patent publication US8058242B2, “Chimeric proteins with natriuretic activity” (The University of Queensland, priority 2004, dated 2011)
Positions of bridges follow the written chain, without caps; N, C: chain ends. Residues, ends and D or L forms follow the SMILES beside them.

Columns and labels:
[1] = target: T1, NPR-A signaling in HeLa cells (Homo sapiens, UniProt P16066); assay: cGMP AlphaScreen assay in HeLa cells (Examples 14, 15); assay type: cell-based; settings: 30 minutes at 37° C.
T1 construct: Cyclic GMP (cGMP) elevation in HeLa cells in response to Natriuretic Peptide stimulation; endogenous in cells; host or cells: HeLa cells
T1 sequence (P16066 33-1061): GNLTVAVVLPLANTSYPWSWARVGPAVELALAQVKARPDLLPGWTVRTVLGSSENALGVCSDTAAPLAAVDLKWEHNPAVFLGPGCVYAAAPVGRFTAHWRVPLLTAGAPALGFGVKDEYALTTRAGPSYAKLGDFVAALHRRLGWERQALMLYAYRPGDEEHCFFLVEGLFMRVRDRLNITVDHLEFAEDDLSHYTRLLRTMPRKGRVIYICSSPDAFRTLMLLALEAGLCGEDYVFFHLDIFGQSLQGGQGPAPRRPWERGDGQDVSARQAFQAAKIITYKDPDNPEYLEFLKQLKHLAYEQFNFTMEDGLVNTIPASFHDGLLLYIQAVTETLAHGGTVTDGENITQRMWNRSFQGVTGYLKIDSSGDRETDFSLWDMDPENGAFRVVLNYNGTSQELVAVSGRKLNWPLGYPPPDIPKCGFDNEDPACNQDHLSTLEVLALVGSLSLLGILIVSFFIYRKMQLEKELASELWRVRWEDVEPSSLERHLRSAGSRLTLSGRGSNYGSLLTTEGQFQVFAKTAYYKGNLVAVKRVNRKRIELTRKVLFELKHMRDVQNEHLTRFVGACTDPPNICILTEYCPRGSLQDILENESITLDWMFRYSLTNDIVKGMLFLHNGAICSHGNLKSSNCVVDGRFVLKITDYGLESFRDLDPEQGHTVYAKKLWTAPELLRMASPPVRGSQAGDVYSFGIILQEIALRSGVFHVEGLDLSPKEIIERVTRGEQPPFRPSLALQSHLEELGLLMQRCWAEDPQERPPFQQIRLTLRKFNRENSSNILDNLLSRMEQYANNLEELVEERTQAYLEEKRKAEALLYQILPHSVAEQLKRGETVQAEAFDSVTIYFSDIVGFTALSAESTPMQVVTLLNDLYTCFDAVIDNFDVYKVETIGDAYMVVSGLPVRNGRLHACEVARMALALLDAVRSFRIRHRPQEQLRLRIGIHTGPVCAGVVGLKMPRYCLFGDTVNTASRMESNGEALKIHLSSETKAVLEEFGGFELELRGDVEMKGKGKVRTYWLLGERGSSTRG
Method: HeLa cells were maintained in RPMI cell culture medium (Gihco Invitrogen, Mt Waverley, Australia) supplemented with 10% Foetal Bovine Serum (Cambrex Bio Science, Rockland, USA). Upon reaching confluence, cells were sub-cultured such that they would be 70-90% confluent at time of assay.
Cyclic GMP (cGMP) elevation in HeLa cells in response to Natriuretic Peptide stimulation was performed using a cGMP AlphaScreen kit (PerkinElmer, Boston, USA), as follows for normal experiments: Cells were detached, pelleted to remove growth medium, and resuspended in Stimulation Buffer (Hank's Balanced Salt Solution, 0.1% Bovine Serum Albumin [BSA] (Sigma-Aldrich, Castle Hill, Australia), 1 mM 3-Isobutyl-1-methylxanthine [IBMX] (Sigma-Aldrich, Castle Hill, Australia)) and diluted to 6×10^6 cells per mL (30 000 cells per 5 μL). 5 μL of cells were added to wells of white 384-well OptiPlates (PerkinElmer, Boston, USA), and stimulated with increasing concentrations of peptide for 30 minutes at 37° C. Cells were then lysed with 10 μL Lysis buffer (dH2O, 0.3% Tween-20 (Sigma-Aldrich, Castle Hill, Australia), 5 mM HEPES (JRH Biosciences, Kansas, USA) and 0.1% BSA) and 5 μL acceptor bead mix (10 μL per mL acceptor beads and 1/3000 anti-cGMP antibody (BioVision, Mountain View, USA) in lysis buffer) added per well in the dark. Plates were incubated in the dark at room temperature for 30 minutes, then 5 μL donor bead mix (10 μL per ML donor beads and 0.3 nM biotinylated cGMP in lysis buffer) was added per well in the dark and the plate incubated overnight at room temperature. Signal was read using an EnVision plate reader (PerkinElmer, Boston, USA) and data analysed using Prism software. The cGMP standard curve was performed as per manufacturer's instructions.
To examine whether TNPc and synthetic analogs produced in the inventors' laboratory could stimulate NPR-A signaling, cGMP elevations in HeLa cells in response to these peptides were measured, as described above.

Plasmin = target: T2, Plasmin (Homo sapiens, UniProt P00747); assay: Stability to enzymatic degradation by plasmin (Examples 7, 16); assay type: in vitro ADME
T2 construct: with 500 ng Endopeptidase (NEP) or 10 μg Plasmin
Method: (§1) The incubation buffer contained 100 mM Tris/HCl and 150 mM NaCl and the pH was adjusted to 7.2-7.4. In each assay, 100 μl of peptide [500 μM] was incubated with 300 μl buffer (with 500 ng Endopeptidase (NEP) or 10 μg Plasmin) at 37° C. 50 μl aliquots were taken at times 5 min, 30 min, 60 min, 90 min, 180 min and 24 h. The reaction was quenched by heating to 100° C. for 4 min and the remaining peptide concentrations measured by RP-HPLC. Note that the levels of Plasmin required to degrade these peptides was several thousands time the levels present in human plasma.
(§2) The stability of TDT and was investigated using the same enzymatic degradation assays (NEP, plasmin, pepsin) disclosed in Example 7. […] It is also evident that the increased NEP stability cannot be explained by the length of the tail region alone as the NEP cleavage site residues at the N-terminal end of the loop region.

pepsin = assay: Stability to enzymatic degradation by pepsin (Example 16); assay type: in vitro ADME
Text: as §2

[2] = target: Endopeptidase (NEP) (EC 3.4.24.11) (Homo sapiens, UniProt P08473); assay: Stability to enzymatic degradation by NEP (Examples 7, 16); assay type: in vitro ADME; settings: over the 360 min measurement period
Method: as §1, §2

Endopeptidase (NEP) (EC 3.4.24.11), sequence (P08473 whole entry): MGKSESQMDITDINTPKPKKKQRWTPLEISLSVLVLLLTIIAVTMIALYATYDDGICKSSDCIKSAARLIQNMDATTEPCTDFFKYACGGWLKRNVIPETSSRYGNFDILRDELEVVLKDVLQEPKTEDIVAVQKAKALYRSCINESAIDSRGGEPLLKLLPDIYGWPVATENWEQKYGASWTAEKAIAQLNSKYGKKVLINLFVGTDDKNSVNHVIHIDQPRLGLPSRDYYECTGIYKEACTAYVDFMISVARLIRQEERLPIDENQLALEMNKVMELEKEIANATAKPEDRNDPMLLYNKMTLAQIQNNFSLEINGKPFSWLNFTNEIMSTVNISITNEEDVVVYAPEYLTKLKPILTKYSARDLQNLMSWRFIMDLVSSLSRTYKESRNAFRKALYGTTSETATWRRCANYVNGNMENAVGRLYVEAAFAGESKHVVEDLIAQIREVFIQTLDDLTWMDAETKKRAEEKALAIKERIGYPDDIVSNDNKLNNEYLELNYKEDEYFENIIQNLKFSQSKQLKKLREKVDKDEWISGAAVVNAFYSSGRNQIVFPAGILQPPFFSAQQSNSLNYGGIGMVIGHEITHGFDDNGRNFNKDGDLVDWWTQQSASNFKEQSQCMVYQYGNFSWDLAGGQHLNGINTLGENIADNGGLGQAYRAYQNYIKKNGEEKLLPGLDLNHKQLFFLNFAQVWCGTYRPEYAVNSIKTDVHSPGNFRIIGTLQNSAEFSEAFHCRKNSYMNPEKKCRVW
T2 sequence (P00747 97-580 partner limits assumed, species assumed): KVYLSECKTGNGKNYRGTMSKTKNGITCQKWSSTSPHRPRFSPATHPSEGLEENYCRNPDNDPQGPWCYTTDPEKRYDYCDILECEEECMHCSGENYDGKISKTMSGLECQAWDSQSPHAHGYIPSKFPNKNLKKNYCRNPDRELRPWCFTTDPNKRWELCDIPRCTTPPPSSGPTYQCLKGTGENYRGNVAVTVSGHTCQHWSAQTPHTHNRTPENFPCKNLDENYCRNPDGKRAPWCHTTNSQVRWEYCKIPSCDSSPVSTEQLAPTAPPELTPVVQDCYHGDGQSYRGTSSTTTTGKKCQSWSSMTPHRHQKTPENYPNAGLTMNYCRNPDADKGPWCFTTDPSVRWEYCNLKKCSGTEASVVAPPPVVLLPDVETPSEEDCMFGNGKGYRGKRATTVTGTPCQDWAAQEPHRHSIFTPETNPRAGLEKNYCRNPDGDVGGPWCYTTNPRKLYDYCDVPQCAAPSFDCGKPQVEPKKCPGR
T2 sequence (P00747 581-810 limits assumed, species assumed): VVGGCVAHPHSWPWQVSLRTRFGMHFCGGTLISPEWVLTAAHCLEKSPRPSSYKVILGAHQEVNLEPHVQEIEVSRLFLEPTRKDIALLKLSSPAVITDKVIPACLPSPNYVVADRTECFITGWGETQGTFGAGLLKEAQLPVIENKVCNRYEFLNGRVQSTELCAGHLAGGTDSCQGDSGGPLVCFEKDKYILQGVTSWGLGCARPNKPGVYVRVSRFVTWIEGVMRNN

## CC[C@H](C)[C@H](NC(=O)[C@H](CCCCN)NC(=O)[C@H](CO)NC(=O)[C@H](CC(=O)O)NC(=O)[C@@H](N)CO)C(=O)NCC(=O)N[C@@H](CC(N)=O)C(=O)NCC(=O)N[C@H]1CSSC[C@@H](C(=O)N[C@@H](CC(N)=O)C(=O)N[C@@H](CCCNC(=N)N)C(=O)N[C@H](C(=O)N[C@@H](CCSC)C(=O)N[C@@H](CCC(N)=O)C(=O)N[C@@H](CC(N)=O)C(=O)N2CCC[C@H]2C(=O)N2CCC[C@H]2C(=O)N[C@@H](CCCCN)C(=O)N[C@@H](CCCCN)C(=O)N[C@@H](Cc2ccccc2)C(=O)N[C@@H](CO)C(=O)NCC(=O)N[C@@H](CCC(=O)O)C(=O)O)[C@@H](C)CC)NC(=O)CNC(=O)[C@H](CC(C)C)NC(=O)[C@H](CC(N)=O)NC(=O)[C@H](CO)NC(=O)[C@H](C(C)C)NC(=O)[C@H](Cc2c[nH]cn2)NC(=O)[C@H](CC(N)=O)NC(=O)[C@H]([C@@H](C)CC)NC(=O)[C@H](CCCNC(=N)N)NC(=O)[C@H](CC(=O)O)NC(=O)[C@H]([C@@H](C)CC)NC(=O)[C@H](CCCCN)NC(=O)[C@H](Cc2c[nH]cn2)NC(=O)CNC(=O)[C@H](Cc2ccccc2)NC1=O [TDT] (H-SDSKIGNGCFGHKIDRINHVSNLGCNRIMQNPPKKFSGE-OH; disulfide 9-25)
[1]; EC50, cGMP accumulation in HeLa cells
  EC50: 0.0704 µM
[1]; −Log10EC50 (pEC50) ± Standard Error, cGMP accumulation in HeLa cells
  EC50: 0.0619 µM
Plasmin
  stability against plasmin compared with ANP: more stable than ANP
pepsin
  stability against pepsin compared with ANP: more stable than ANP
[2]
  degradation by NEP: minimal degradation
